Assay results as given in patent US4820834A, “Benzodiazepine analogs” (priority 1987, dated 1989).
Where two headings read alike, the source gives them in different places.

Key:
[1] = target: T1, CCK receptor (brain, cerebral cortex) (Cavia porcellus, UniProt H0VZC5); assay: biochemical; assay type: binding, Male Hartley guinea pigs
T1 construct: Cerebral cortex was dissected and used as a receptor source; from tissue; host or cells: guinea pig cerebral cortex membranes (male Hartley)
T1 sequence (H0VZC5 1-426): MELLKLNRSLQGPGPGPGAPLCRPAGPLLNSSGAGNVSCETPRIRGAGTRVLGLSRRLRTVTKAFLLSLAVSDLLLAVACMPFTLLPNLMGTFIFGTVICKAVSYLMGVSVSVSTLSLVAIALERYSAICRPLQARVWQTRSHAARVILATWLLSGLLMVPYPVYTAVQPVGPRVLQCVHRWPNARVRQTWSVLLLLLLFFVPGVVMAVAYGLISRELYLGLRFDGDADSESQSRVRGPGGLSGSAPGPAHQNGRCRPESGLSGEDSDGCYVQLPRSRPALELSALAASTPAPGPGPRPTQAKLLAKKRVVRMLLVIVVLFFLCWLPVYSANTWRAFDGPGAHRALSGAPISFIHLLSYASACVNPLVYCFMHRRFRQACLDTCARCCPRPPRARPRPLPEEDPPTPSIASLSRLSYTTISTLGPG
Method: 2. CCK Recepto Binding (Brain)
CCK-33 was radiolabeled and the binding was Performed according to the description for the Pancreas method with modifications according to Saito et al., J. Neurochem.
Cerebral cortex was dissected and used as a receptor source. Each gram of fresh guinea pig brain tissue was homogenized in 10 ml of Tris/Trizma buffer with a Brinkman polytron PT-10. The homogenates were centrifuged at 42,000 g for 15 minutes. Pellets were resuspended in Tris Buffer, centrifuged as above and resuspended in 200 volumes of binding assay buffer (10 mM N-2-hydroxyethyl-piperazine-N'-2-ethane sulfonic acid (HEPES), 5 mM MgCl2, 0.25 mg/ml bacitracin, 1 mM ethylene glycol-bis-(β-aminoethylether-N,N'-tetraacetic acid) (EGTA), and 0.4% bovine serum albumin (BSA)). […] All assays were run in duplicate or triplicate. The reaction mixtures were incubated at 25° C. for 2 hours and centrifuged in a Beckman Microfuge (4 minutes) immediately after adding 1 ml of ice-cold incubation buffer. The supernatant was aspirated and discarded, pellets were counted with a Beckman gamma 5000.

[2] = target: T2, Gastrin receptor (gastric glands) (Cavia porcellus, UniProt H0VZC5); assay: Gastrin Receptor Binding in Guinea Pig Gastric Glands; set-up: species or system guinea pig (male Hartley)
T2 construct: The washed guinea pig gastric glands prepared as above were resuspended; from tissue; host or cells: guinea pig gastric mucosal glands (male Hartley)
T2 sequence (H0VZC5 1-426): T1 sequence (H0VZC5 1-426)

[3] = IC50 ^125 I-CCK Brain, guinea pig cerebral cortex, ^125 I-CCK-33, 25° C., 2 hours
[4] = IC50 ^125 I-Gastrin Gastric Glands, 25° C., 30 minutes
[5] = ^125 I-gastrin, 25° C., 30 minutes, read-out: IC50 ^125 I-Gastrin Gastric Glands

SMILES | IC50 [1, 3] | IC50 [2, 4] | other results
O=C(NC1N=C(c2ccccc2F)c2ccccc2NC1=O)c1cc2cc(F)ccc2[nH]1 (racemic) [Example 114, 1,3-Dihydro-3-(RS)-(5-fluoroindole-2-carbonylamino)-5-(2-fluorophenyl)-2H-1,4-benzodiazepin-2-one] | 12 µM | 4.8 µM | 
O=C(NC1N=C(c2ccccc2F)c2ccccc2NC1=O)c1cc2cc(Cl)ccc2[nH]1 (racemic) [Example 118, 1,3-Dihydro-3-(RS)-(5-Chloroindole-2-carbonylamino)-5-(2-fluorophenyl)-2H-1,4-benzodiazepin-2-one] | 38 µM | > 10 µM | 
CN(C(=O)c1cc2ccccc2[nH]1)C1N=C(c2ccccc2)c2ccccc2NC1=O (racemic) [Example 119, 3-(RS)-[N-(2-indolecarbonyl)-N-methylamino]-1,3-dihydro-5-phenyl-2H-1,4-benzodiazepin-2-one] | 33 µM | > 10 µM | 
O=C(NC1N=C(c2ccccc2F)c2ccccc2NC1=O)c1cc2cc(Br)ccc2[nH]1 (racemic) [Example 120, 1,3-Dihydro-3-(RS)-(5-Bromoindole-2-carbonylamino)-5-(2-fluorophenyl)-2H-1,4-benzodiazepin-2-one] | 50 µM | > 10 µM | 
O=C(C=Cc1ccccc1)NC1N=C(c2ccccc2F)c2ccccc2NC1=O (racemic) [Example 121, 3-(RS)-Cinnamoylamino-1,3-dihydro-5-(2-fluorophenyl)-2H-1,4-benzodiazepin-2-one] |  |  | IC50 ([1]; guinea pig cerebral cortex, ^125 I-CCK-33, 25° C., 2 hours; read-out: IC50 ^125 I-CCK Brain): 5.5 µM; IC50 [2, 5]: 3.8 µM
O=C(NC1N=C(c2ccccc2F)c2ccccc2NC1=O)c1cc2cc(O)ccc2[nH]1 (racemic) [Example 122, 1,3-Dihydro-3-(RS)-(5-hydroxy-2-indolylcarbonyl)amino-5-(2-fluorophenyl)-2H-1,4-benzodiazepin-2-one] | 16 µM | 29 µM | 
COc1ccc2[nH]c(C(=O)NC3N=C(c4ccccc4F)c4ccccc4NC3=O)cc2c1 (racemic) [Example 126, 1,3-Dihydro-3-(RS)-(5-methoxyindole-2-carbonylamino)-5-(2-fluorophenyl)-2H-1,4-benzodiazepin-2-one] | 29 µM | > 10 µM | 
Cn1c(C(=O)NC2N=C(c3ccccc3F)c3ccccc3NC2=O)cc2ccccc21 (racemic) [Example 127, 1,3-Dihydro-3-(RS)-(1-methylindole-2-carbonylamino)-5-(2-fluorophenyl)-2H-1,4-benzodiazepine-2-one] | 7 µM | 6.3 µM | 
O=C(NC1N=C(c2ccccc2F)c2ccccc2NC1=O)c1cc2ccccc2o1 (racemic) [Example 128, 1,3-Dihydro-5-(2-fluorophenyl)-3-(RS)-(2-benzofurancarbonylamino)-2H-1,4-benzodiazepin-2-one] |  |  | IC50 ([1]; read-out: IC50 ^125 I-CCK Brain; guinea pig cerebral cortex, ^125 I-CCK-33, 25° C., 2 hours): 32 µM; IC50 ([2]; read-out: IC50 ^125 I-Gastrin Gastric Glands, 25° C., 30 minutes): 11 µM
CCOC(=O)CN1C(=O)C(NC(=O)c2ccc(Cl)cc2)N=C(c2ccccc2F)c2ccccc21 (racemic) [Example 129, 1-Ethoxycarbonylmethyl-1,3-dihydro-3(RS)-(4-chloro-phenylcarbonyl)amino-5-(2-fluorophenyl)-2H-1,4-benzodiazepin-2-one] | 1.9 µM | 0.69 µM | 
O=C(NC1N=C(c2ccccc2)c2ccccc2NC1=O)c1ccc(Cl)cc1 (racemic) [Example 130, 1,3-Dihydro-3-(RS)-(4-chlorophenylcarbonyl)amino-5-phenyl-2H-1,4-benzodiazepin-2-one] | > 40 µM | 8.2 µM | 
O=C(O)CN1C(=O)C(NC(=O)c2ccc(Cl)cc2)N=C(c2ccccc2F)c2ccccc21 (racemic) [Example 132, 1-Carboxymethyl-1,3-dihydro-3-(RS)-(4-chlorophenyl-carbonyl)amino-5-(2-fluorophenyl)-2H-1,4-benzodiazepin-2-one] | > 100 µM | 8.2 µM | 
O=C(NC1N=C(c2ccccc2F)c2ccccc2NC1=O)c1ccc(C(F)(F)F)cc1 (racemic) [Example 134, 1,3-Dihydro-5-(2-fluorophenyl)-3-(RS)-(p-trifluoro-methylbenzoylamino)-2H-1,4-benzodiazepin-2-one] | 40 µM | 9.5 µM | 
Cc1ccc(C(=O)NC2N=C(c3ccccc3F)c3ccccc3NC2=O)cc1 (racemic) [Example 135, 1,3-Dihydro-5-(2-fluorophenyl)-3-(RS)-(p-methylbenzoylamino)-2H-1,4-benzodiazepin-2-one] | > 40 µM | 5 µM | 
COc1ccc(C(=O)NC2N=C(c3ccccc3F)c3ccccc3NC2=O)cc1 (racemic) [Example 136, 1,3-Dihydro-5-(2-fluorophenyl)-3-(RS)-(p-methoxybenzoylamino)-2H-1,4-benzodiazepin-2-one] | > 40 µM | 5.4 µM | 
O=C(NC1N=C(c2ccccc2)c2ccccc2NC1=O)c1ccccc1Cl (racemic) [Example 137, 3-(RS)-(o-Chlorobenzoylamino)-1,3-dihydro-5-phenyl-2H-1,4-benzodiazepin-2-one] | > 40 µM | 52 µM | 
CN1C(=O)C(N(C)C(=O)c2ccccc2Cl)N=C(c2ccccc2)c2ccccc21 (racemic) [Example 138, 3-(RS)-(N-(o-Chlorobenzoyl)-N-methylamino)-1,3-dihydro-1-methyl-5-phenyl-2H-1,4-benzodiazepin-2-one] | 100 µM | > 100 µM | 
CN1C(=O)C(NC(=O)c2ccccc2Cl)N=C(c2ccccc2)c2ccccc21 (racemic) [Example 139, 3-(RS)-(o-Chlorobenzoylamino)-1,3-dihydro-1-methyl-5-phenyl-2H-1,4-benzodiazepin-2-one] | > 100 µM |  | IC50 [2, 5]: 30 µM
O=C(NC1N=C(c2ccccc2)c2ccccc2NC1=O)c1cccc(Cl)c1 (racemic) [Example 140, 3-(RS)-(m-Chlorobenzoylamino)-1,3-dihydro-5-phenyl-2H-1,4-benzodiazepin-2-one] | 75 µM | 4.3 µM | 
O=C(NC1N=C(c2ccccc2)c2ccccc2NC1=O)c1ccc(Cl)c(Cl)c1 (racemic) [Example 141, 3-(RS)-(3,4-Dichlorobenzoylamino)-1,3-dihydro-5-phenyl-2H-1,4-benzodiazepin-2-one] | > 40 µM | 25 µM | 
CN1C(=O)C(NC(=O)c2ccc(Cl)cc2)[N+]([O-])=C(c2ccccc2F)c2ccccc21 (racemic) [Example 142, 3-(RS)-(p-Chlorobenzoylamino)-1,3-dihydro-5-(2'-fluorophenyl)-1-methyl-4-oxo-2H-1,4-benzodiazepin-2-one] | 18 µM | 2.4 µM | 
CSc1ccc(C(=O)NC2N=C(c3ccccc3)c3ccccc3NC2=O)cc1 (racemic) [Example 143, 1,3-Dihydro-5-Phenyl-3-(RS)-(4'-methylthiobenzoylamino)-2H-1,4-benzodiazepin-2-one] | 23 µM | 8 µM | 
O=C(NC1N=C(c2ccccc2)c2ccccc2NC1=O)c1ccc(F)cc1 (racemic) [Example 144, 1-3-Dihydro-3-(RS)-(4'-fluorobenzoylamino)-5-phenyl-2H-1,4-benzodiazeoin-2-one] | 43 µM | 9.4 µM | 
O=C(NC1N=C(c2ccccc2)c2ccccc2NC1=O)c1ccc(C(F)(F)F)cc1 (racemic) [Example 145, 1,3-Dihydro-5-Phenyl-3-(RS)-(4'-trifluoromethylbenzoylamino)-2H-1,4-benzodiazepin-2-one] | 65 µM | 36 µM | 
CC(C)(C)c1ccc(C(=O)NC2N=C(c3ccccc3)c3ccccc3NC2=O)cc1 (racemic) [Example 146, 1,3-Dihydro-3-(RS)-(4'-tert-butylbenzoylamino)-5-phenyl-2H-1,4-benzodiazepin-2-one] | 100 µM | 40 µM | 
O=C(NC1N=C(c2ccccc2)c2ccccc2NC1=O)c1cc(Cl)cc(Cl)c1 (racemic) [Example 147, 3-(RS)-(3,5-Dichlorobenzoylamino)1,3-dihydro-5-phenyl-2H-1,4-benzodiazepin-2-one] | > 100 µM | 180 µM | 
O=C(NC1N=C(c2ccccc2)c2ccccc2NC1=O)c1ccc(O)cc1 (racemic) [Example 148, 1-3-Dihydro-3-(RS)-(p-Hydroxybenzoylamino)-5-phenyl-2H-1,4-benzodiazepin-2-one] | 100 µM | 31 µM | 
